Measured values from patent US6313179A, “Treatment of hyperproliferative skin disorders with C18 to C20 aliphatic alcohols” (Avanir Pharmaceuticals, priority 1998, dated 2001).
Where “and” joins values, the source holds several entries; their conditions need not be identical. Equal entries are not always repeated. Entries after “also recorded” stand apart in the source; their conditions may differ. Where two headings read alike, the source gives them in different places.

Experiments:
Human keloid fibroblasts [1] = experiment: Antiproliferative activity of n-docosanol in keloid cells (Example 1, viable cell count); format: cell-based; conditions: 15 mM; for inhibition of keloid cell growth in vitro (in words): cultured keloid / hypertrophic fibroblasts; for activity at 15000 µM / cells/well: Table 1; for activity at 15000 µM: compared to cells incubated with no addition, read-out: % control
Procedure: (§1) Human keloid fibroblasts were obtained from the American Type Culture Collection (Rockville, Md.) (CRL 1762). n-Docosanol (300 mM) was suspended in the nonionic surfactant Pluronic F-68 (12 mM) as described previously (Katz et al., Proc. Natl. Acad. Sci. U.S.A., 88:10825-10829, 1991, hereby incorporated by reference). A vehicle control was prepared using the same procedure except n-docosanol was omitted. Keloid cells (2.7×10^4per well) were added to 16 mm wells containing DMEM supplemented with 10% fetal calf serum (FCS), sodium pyruvate, L-glutamine and penicillin/streptomycin. n-Docosanol (15 mM) or the corresponding Pluronic F-68 control (0.6 mM) was added (total volume=2.0 ml). Cells were harvested after incubation for 72 and 168 hours at 37° C. in a humidified 10% CO2 incubator. The number of viable cells was determined by trypan blue staining.

keloid cells = experiment: Comparison of n-docosanol effect between keloid and normal cells: keloid cells (Example 2); format: cell-based, Human; conditions: 15 mM; for inhibition at 15000 µM / activity at 15000 µM: Homo sapiens; for inhibition at 15000 µM: read-out: inhibition of number of keloid cells per well; for activity at 15000 µM / cells/well: Table 2; for activity at 15000 µM: compared to cells incubated with no addition, read-out: % control
Procedure: as §1
(§2) Human fetal lung cells (HFL; ATCC CCL 153) and keloid cells (5×10^4 cells/well) were separately added to 16 mm wells and treated as described in Example 1. The results are shown in Tables 2 (keloid cells) and 3 (human fetal lung cells).

[2] = tested on: Human fetal lung cells (HFL; ATCC CCL 153); experiment: Comparison of n-docosanol effect between keloid and normal cells: human fetal lung cells (Example 2); format: cell-based; conditions: 15 mM; for activity at 15000 µM: Homo sapiens, compared to cells incubated with no addition, read-out: % control; for activity at 15000 µM / cells/well: Table 3
Procedure: as §1, §2

Human keloid fibroblasts [3] = experiment: Proliferation study, keloid cells (Example 3); format: cell-based; conditions: 3 mM
Procedure: (§3) Human keloid fibroblasts, normal control skin fibroblasts and Vero cells were obtained from ATCC. n-Docosanol (30 mM) was suspended in Pluronic F-68 (1.2 mM) as described previously (Katz et al., ibid). A vehicle control was prepared using the same procedure except for the omission of n-docosanol. Radiolabeled n-[1-^14 C] docosanol suspension was prepared as described by Katz et al. (ibid.). Cells were resuspended in 1.2×10^6 cells/ml in DMEM supplemented with 10% fetal calf serum, sodium pyruvate, L-glutamine and penicillin-streptomycin. Cell suspension (0.5 ml) was added to each 35 mm well containing 1.3 ml media, followed by addition of 0.2 ml radiolabeled n-docosanol suspension (final n-docosanol concentration=3 mM). After 24 hours at 37° C. in humidified 10% CO2, the suspension was removed, wells were washed extensively with saline and cells were solubilized for scintillation counting by incubation with 0.5 ml trypsin for 15 min at 37° C. Solubilized cells were counted in a Beckman LS6000 scintillation counter. Samples were corrected for nonspecific binding to plates by subtracting values obtained in control wells lacking cells. To determine cell number, duplicate plates were treated with non-radiolabeled n-docosanol or control suspension at the same concentration or were left untreated. The number of viable cells was determined by trypan blue staining.

[4] = tested on: normal skin fibroblast (ATCC CRL 1900) cells; experiment: Proliferation study, normal skin fibroblasts (Example 3); format: cell-based
Procedure: (§4) The following experiment examined the effect of n-docosanol on cell proliferation and quantitation of n-[1-^14 C]docosanol binding to keloid, Vero (normal African green monkey kidney; ATCC CCL 81) and normal skin fibroblast (ATCC CRL 1900) cells.
as §3

[5] = tested on: Vero (normal African green monkey kidney; ATCC CCL 81) cells; experiment: Proliferation study, Vero cells (Example 3); format: cell-based; conditions: 3 mM
Procedure: as §4, §3

Human keloid fibroblasts [6] = experiment: Radiolabeled n-docosanol binding to keloid cells (Example 3); format: cell-based; conditions: 24 hours
Procedure: as §3

[7] = tested on: normal skin fibroblast (ATCC CRL 1900) cells; experiment: Radiolabeled n-docosanol binding to normal skin fibroblasts (Example 3); format: cell-based; conditions: Table 4, n-[1-14C]docosanol 3 mM, 24 hours
Procedure: as §4
as §3, with “Samples were corrected for nonspecific binding to plates by subtracting values obtained in control wells lacking cells. To determine cell number, duplicate plates were treated with non-radiolabeled n-docosanol or control suspension at the same concentration or were left untreated.” left out

[8] = tested on: Vero (normal African green monkey kidney; ATCC CCL 81) cells; experiment: Radiolabeled n-docosanol binding to Vero cells (Example 3); format: cell-based; conditions: Table 4, n-[1-14C]docosanol 3 mM, 24 hours
Procedure: as §4
as §3, with “Samples were corrected for nonspecific binding to plates by subtracting values obtained in control wells lacking cells. To determine cell number, duplicate plates were treated with non-radiolabeled n-docosanol or control suspension at the same concentration or were left untreated.” left out

[9] = tested on: cutaneous Kaposi's sarcoma; experiment: Treatment of Kaposi's sarcoma with 10% n-docosanol cream (Example 6); format: in vivo, Human; conditions: 10% cream
Procedure: HIV-positive male patients presenting with treatment-resistant cutaneous Kaposi's sarcoma were treated for 28 days, 5 times daily with the 10% n-docosanol cream formulation described in Example 4. Response to treatment was evaluated according to lesion dimensions, color of the lesion and the type of lesion (hard, soft or nodule). The data were recorded on intermittent days throughout the 28 days of the study and values were compared to baseline observations made on Day 1. Three target lesions were evaluated in each patient. Thus far, five patients have completed the study.

herpes simplex virus = conditions: suspended in a surfactant; cell culture assays; cited from earlier work
[10] = tested on: respiratory syncytial virus; conditions: suspended in a surfactant; cell culture assays; cited from earlier work
[11] = concentrations up to 300 mM; cited from earlier work
[12] = one patient, Day 15 and thereafter

CCCCCCCCCCCCCCCCCCCCCCO [n-docosanol]
inhibition of keloid cell growth in vitro (in words) (Human keloid fibroblasts [1]): favored by low cell densities and longer incubation times and is concentration-dependent; also recorded: dramatic inhibition of keloid cell growth
inhibition of keloid cell growth in vitro (in words) (Human keloid fibroblasts [1]; listed as n-Docosanol): exhibits antiproliferative activity against cultured hypertrophic fibroblasts
inhibition at 15000 µM (Human keloid fibroblasts [1]; Homo sapiens, Fibroblast, 168 hours, compared to no addition, read-out: inhibition of cell growth): 76%
activity at 15000 µM (Human keloid fibroblasts [1]; Homo sapiens, Fibroblast, 72 hours): 103%
activity at 15000 µM (Human keloid fibroblasts [1]; Homo sapiens, Fibroblast, 168 hours): 24%
cells/well (Human keloid fibroblasts [1]; 72 hours): 3.3 × 10^4 cells/well
cells/well (Human keloid fibroblasts [1]; 168 hours): 1.0 × 10^4 cells/well
inhibition at 15000 µM (keloid cells; 72 hours): 36%
inhibition at 15000 µM (keloid cells; 168 hours): 85%
activity at 15000 µM (keloid cells; 72 hours): 64%
activity at 15000 µM (keloid cells; 168 hours): 15%
cells/well (keloid cells; 72 hours): 1.1 × 10^4 cells/well
cells/well (keloid cells; 168 hours): 0.4 × 10^4 cells/well
number of human fetal lung cells (in words) ([2]; at both time intervals (72 and 168 hours)): significantly increased
activity at 15000 µM ([2]; 72 hours): 116%
activity at 15000 µM ([2]; 168 hours): 250%
cells/well ([2]; 72 hours): 5.8 × 10^4 cells/well
cells/well ([2]; 168 hours): 20 × 10^4 cells/well
inhibition at 3000 µM (Human keloid fibroblasts [3]; Homo sapiens, Fibroblast, 24 h, one day incubation, read-out: reduction of number of keloid cells): 57%
activity at 3000 µM (Human keloid fibroblasts [3]; Homo sapiens, Fibroblast, Table 4, Keloid, 24 hours, compared to cells incubated with no addition, read-out: % ctrl): 43%
No. cells (Human keloid fibroblasts [3]; Table 4, Keloid, 24 hours): 1.6 × 10^5 cells
number of CRL-1900 normal skin fibroblasts (in words) ([4]; 3 mM, one day incubation): not decreased
activity at 3000 µM ([4]; Skin fibroblast, Table 4, CRL-1900, 3 mM, 24 hours, compared to cells incubated with no addition, read-out: % ctrl): 98%
No. cells ([4]; Table 4, CRL-1900, 3 mM, 24 hours): 5.4 × 10^5 cells
growth of normal cells (in words) ([4]; under the tissue culture conditions used, general statement on normal cells): unaffected
number of Vero cells (in words) ([5]; one day incubation): not decreased
activity at 3000 µM ([5]; Chlorocebus sabaeus, Table 4, Vero, 24 hours, compared to cells incubated with no addition, read-out: % ctrl): 151%
No. cells ([5]; Table 4, Vero, 24 hours): 5.9 × 10^5 cells
amount of radiolabeled n-docosanol bound to keloid as compared to CRL 1900 cells (Human keloid fibroblasts [6]; 3 mM, vs CRL 1900): About three
Binding per 10^6 cells (Human keloid fibroblasts [6]; Table 4, Keloid, n-[1-14C]docosanol 3 mM): 45.5 μg
Binding per 10^6 cells [7]: 15.6 μg
Binding per 10^6 cells [8]: 8.9 μg
patients with a response (reduction in the size of the lesions) ([9]; Day 28 vs Day 1): three out of five
lesions with reduction in size, two patients ([9]; Day 28 vs Day 1, each of two patients): 3 out of 3
lesions with reduction in size, one patient ([9]; Day 28 vs Day 1, one patient): 2 out of 3
color changes in lesions ([9]; all five patients, all lesions): color changes in all lesions to a lighter color
increase in lesion size ([9]; any of the 15 lesions studied): not observed
disappearance of lesion ([9]; by Day 3, one lesion): One lesion completely disappeared by Day 3
clinically observed swelling [9, 12]: decrease in the clinically observed swelling
pain of lesions [9, 12]: less painful
Day 28 Color ([9]; Table 5, 5 times daily, 28 days, per patient and lesion): pale and gone and pale pink and very pale and pink and tan and lighter
percent reduction in lesion size ([9]; Table 5, Day 28 vs Day 1, 5 times daily, per patient and lesion): 75% and gone and 74% and 19% and 20% and 0% and 28% and 10%
antiviral activity (herpes simplex virus): potent antiviral activity
antiviral activity [10]: potent antiviral activity
cytotoxicity [11]: not cytotoxic in concentrations up to 300 mM
